According to PubChem BioAssay (NCI):
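Cells were grown in 96-well plates and exposed to each compound for 48 hours at five concentrations; endpoints were interpolated linearly between bracketing concentrations, or set to the highest concentration if not reached. TGI denotes the concentration required for complete inhibition of growth.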

Key:
Experiment in all cases: NCI-60 cell line screen, 48 h
A549 NSCLC = system: A549 NSCLC
HOP-92 NSCLC = system: HOP-92 NSCLC
M14 melanoma = system: M14 melanoma
NCI-H23 lung = system: NCI-H23 lung
SF-539 CNS = system: SF-539 CNS
UO-31 renal = system: UO-31 renal
HS 578T breast = system: HS 578T breast
MDA-N = system: MDA-N
NCI/ADR-RES ovarian = system: NCI/ADR-RES ovarian
T-47D breast = system: T-47D breast

SMILES: CC(C)c1cc(C(C)C)c(S(=O)(=O)N=[N+]=[N-])c(C(C)C)c1
- TGI (A549 NSCLC): > 100 µM
- TGI (HOP-92 NSCLC): > 100 µM
- TGI (M14 melanoma): > 100 µM
- TGI (NCI-H23 lung): > 100 µM
- TGI (SF-539 CNS): > 100 µM
- TGI (UO-31 renal): > 100 µM

SMILES: Clc1ccc(C2=CCN3CC=C(c4ccc(Cl)cc4)C23)cc1
- TGI (A549 NSCLC): 28.3 µM
- TGI (HS 578T breast): 30.3 µM
- TGI (M14 melanoma): 22.6 µM
- TGI (MDA-N): 22.7 µM
- TGI (NCI-H23 lung): 26.8 µM
- TGI (NCI/ADR-RES ovarian): 26.9 µM
- TGI (SF-539 CNS): 31.1 µM
- TGI (T-47D breast): 29.2 µM
- TGI (UO-31 renal): 20 µM

SMILES: COc1cc2nc(-c3cccs3)nc(Nc3cccc(Cl)c3)c2cc1OC
- TGI (A549 NSCLC): > 100 µM
- TGI (HOP-92 NSCLC): > 100 µM
- TGI (HS 578T breast): > 100 µM
- TGI (M14 melanoma): > 100 µM
- TGI (NCI-H23 lung): > 100 µM
- TGI (NCI/ADR-RES ovarian): > 100 µM
- TGI (SF-539 CNS): > 100 µM
- TGI (T-47D breast): > 100 µM
- TGI (UO-31 renal): > 100 µM

SMILES: CC(=O)OC[C@H]1On2nnnc2[C@H](OC(C)=O)[C@@H](OC(C)=O)[C@@H]1OC(C)=O
- TGI (A549 NSCLC): > 100 µM
- TGI (HOP-92 NSCLC): > 100 µM
- TGI (HS 578T breast): > 100 µM
- TGI (MDA-N): > 100 µM
- TGI (NCI-H23 lung): > 100 µM
- TGI (NCI/ADR-RES ovarian): > 100 µM
- TGI (SF-539 CNS): > 100 µM
- TGI (T-47D breast): > 100 µM
- TGI (UO-31 renal): > 100 µM

SMILES: CSc1cnc2ccccc2c1Sc1c[nH]c2ccccc2c1=O
- TGI (A549 NSCLC): 24.8 µM
- TGI (HOP-92 NSCLC): 29.7 µM
- TGI (M14 melanoma): 27.2 µM
- TGI (NCI-H23 lung): 36.7 µM
- TGI (SF-539 CNS): 31.1 µM
- TGI (UO-31 renal): 45.1 µM

SMILES: Cc1c2ccncc2c(C)c2c1[nH]c1ccc(OCCN(C)C)cc12
- TGI (A549 NSCLC): 0.844 µM
- TGI (HOP-92 NSCLC): 1.62 µM
- TGI (NCI-H23 lung): 1.22 µM
- TGI (NCI/ADR-RES ovarian): 0.348 µM
- TGI (SF-539 CNS): 2.38 µM
- TGI (UO-31 renal): 1.75 µM

SMILES: CC(=O)OCC1OC(n2c(C)c(C)c(C)c(C#N)c2=S)C(OC(C)=O)C(OC(C)=O)C1OC(C)=O (stereo not drawn)
- TGI (A549 NSCLC): > 100 µM
- TGI (HOP-92 NSCLC): > 100 µM
- TGI (M14 melanoma): > 100 µM
- TGI (MDA-N): > 100 µM
- TGI (NCI-H23 lung): > 100 µM
- TGI (NCI/ADR-RES ovarian): > 100 µM
- TGI (SF-539 CNS): > 100 µM
- TGI (T-47D breast): > 100 µM
- TGI (UO-31 renal): 59.7 µM

SMILES: COC(=O)Cn1cnc2c(Cl)nc(Nc3ccccc3)nc21
- TGI (A549 NSCLC): > 100 µM
- TGI (HS 578T breast): 54.1 µM
- TGI (M14 melanoma): > 100 µM
- TGI (MDA-N): > 100 µM
- TGI (NCI/ADR-RES ovarian): > 100 µM
- TGI (SF-539 CNS): > 100 µM
- TGI (T-47D breast): > 100 µM

SMILES: CC1(C)CC[C@]2(C(=O)O)CC[C@]3(C)[C@H](C(=O)C=C4[C@@]5(C)C=C(C#N)C(=O)C(C)(C)[C@@H]5CC[C@]43C)[C@@H]2C1
- TGI (A549 NSCLC): 5.86 µM
- TGI (HOP-92 NSCLC): 8.16 µM
- TGI (HS 578T breast): 10.4 µM
- TGI (M14 melanoma): 4.32 µM
- TGI (NCI-H23 lung): 0.628 µM
- TGI (NCI/ADR-RES ovarian): 4.68 µM
- TGI (SF-539 CNS): 4.05 µM
- TGI (T-47D breast): 4.34 µM
- TGI (UO-31 renal): 6.29 µM

SMILES: CCC(=O)OC1CCn2c1nc1c2C(=O)C(C)=C(NC(C)=O)C1=N (stereo not drawn)
- TGI (A549 NSCLC): 10.2 µM
- TGI (HOP-92 NSCLC): 5.15 µM
- TGI (NCI-H23 lung): 3.23 µM
- TGI (SF-539 CNS): 3.21 µM
- TGI (UO-31 renal): 4.64 µM

SMILES: CCN(CC)CC1CCCCN1CC(=O)N1CC(C)C(=O)Nc2ccccc21 (stereo not drawn)
- TGI (A549 NSCLC): > 100 µM
- TGI (HOP-92 NSCLC): > 100 µM
- TGI (M14 melanoma): > 100 µM
- TGI (NCI-H23 lung): > 100 µM
- TGI (UO-31 renal): > 100 µM

SMILES: Cc1ccc(S(=O)(=O)NC(=O)C2=C3SCCN3C(=O)N(S(=O)(=O)c3ccc(C)cc3)C2c2ccccc2)cc1 (stereo not drawn)
- TGI (A549 NSCLC): > 100 µM
- TGI (HOP-92 NSCLC): > 100 µM
- TGI (HS 578T breast): > 100 µM
- TGI (M14 melanoma): > 100 µM
- TGI (NCI-H23 lung): > 100 µM
- TGI (NCI/ADR-RES ovarian): > 100 µM
- TGI (SF-539 CNS): 61.6 µM
- TGI (T-47D breast): > 100 µM
- TGI (UO-31 renal): > 100 µM

SMILES: CCOc1cc2c(cc1O)C(O)C[C@@H]1[C@@H]2CC[C@]2(C)[C@@H](O)CC[C@@H]12 (stereo partly drawn)
- TGI (A549 NSCLC): > 100 µM
- TGI (HOP-92 NSCLC): > 100 µM
- TGI (HS 578T breast): > 100 µM
- TGI (M14 melanoma): > 100 µM
- TGI (MDA-N): 0.326 µM
- TGI (NCI-H23 lung): > 24.7 µM
- TGI (NCI/ADR-RES ovarian): 4.04 µM
- TGI (SF-539 CNS): 3.6 µM
- TGI (UO-31 renal): > 100 µM
